# Several values for one entry are separate records, joined by “and”; a condition that tells them apart may be missing. Equal values may be shown once.
# What was measured:
# DOPA decarboxylase = biological target: T1, DOPA decarboxylase (Mus musculus, UniProt O88533); assay: DOPA-decarboxylase assay (substrate test); type: biochemical; set-up: activity of DOPA decarboxylase with the substance as substrate: unit not given here; conditions: mouse striatum enzyme
# T1 construct: using the mouse striatum as a source of the decarboxylase enzyme; from tissue; host or cells: mouse striatum
# T1 sequence (O88533 1-480): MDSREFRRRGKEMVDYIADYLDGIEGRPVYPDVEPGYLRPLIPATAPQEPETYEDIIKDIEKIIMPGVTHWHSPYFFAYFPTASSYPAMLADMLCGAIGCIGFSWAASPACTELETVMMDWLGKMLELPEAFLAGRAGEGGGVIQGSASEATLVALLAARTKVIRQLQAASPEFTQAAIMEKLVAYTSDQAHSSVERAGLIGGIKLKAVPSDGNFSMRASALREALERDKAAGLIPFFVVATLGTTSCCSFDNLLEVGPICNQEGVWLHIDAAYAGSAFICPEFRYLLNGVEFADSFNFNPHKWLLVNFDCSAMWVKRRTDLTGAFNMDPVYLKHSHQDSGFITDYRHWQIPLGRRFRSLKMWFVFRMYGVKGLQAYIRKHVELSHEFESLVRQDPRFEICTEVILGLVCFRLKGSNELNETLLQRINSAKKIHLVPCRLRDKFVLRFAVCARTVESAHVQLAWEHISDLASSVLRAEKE
# Procedure: DOPA-decarboxylase assay: As discussed hereinabove, one of the limitations associated with treatment with L-DOPA is its decarboxylation in the periphery by a DOPA decarboxylase, which reduces the amount the amount of L-DOPA that crosses the BBB.
# The assay was carried out according to Hadjiconstantinou et al. [Aromatic L-amino acid decarboxylase activity of mouse striatum is modulated via dopamine receptors. J Neurochem. 1993 June; 60(6):2175-80], using the mouse striatum as a source of the decarboxylase enzyme.
# The activity of the DOPA decarboxylase was thus tested with L-DOPA, DOPA-ethyl ester and LDA. L-DOPA ethyl ester (Compound 1), known as a much poorer substrate of the decarboxylase, served as a control was used as a control in these assays.
# [1] = cited from earlier work
# [2] = cited from earlier work; remark: listed apart in the source
# [3] = tested on: unilaterally 6-hydroxydopamine-lesioned male rats; assay: Rotation experiments (rotometer), LDA administered intraperitoneally; type: in vivo, rat
# Procedure: (§1) The in vivo activity of LDA administered intravenously (iv) and intraperitoneally (ip) was evaluated using rotations experiments, conducted and based in accordance with published studies, as follows:
# (§2) Briefly, Dunnet's experiment uses PD induced animal models which are treated with a unilateral lesion to the brain that effects their motorial behavior. In case of rats, they turn away from the side of the lesion when treated with an agent which increases the dopamine brain level. In order to quantify this effect, a device called rotometer is used, which records the circling behavior of the tested rat by counting the number of clockwise (CW) and counter clockwise (CCW) rotations the animal is turning in a hemisphere-shaped bowl which encourages a circling behavior.
# (§3) Thus, twenty unilaterally 2,4,5-trihydroxyphenethylamine (6-hydroxydopamine)-lesioned male rats, weighing about 300 grams (obtained from Harlan, Rehovoth Israel) were treated with LDA and carbidopa, as is detailed hereinbelow. […] Pharmacol Toxicol. 93(2):66-70].
# (§4) Treatment was performed by intravenously or intraperitoneally administering the LDA.
# Intraperitoneal Experiments: Four rats were treated with 6-hydroxydopamine (8 μg/rat). Rats were then administered with carbidopa (4 mg/kg i.p), and 15 minutes thereafter with 15 mg/kg LDA, administered intraperitoneally. Immediately after LDA injection the rotometer was activated and the rats were monitored during 3 hours.
# [4] = tested on: unilaterally 6-hydroxydopamine-lesioned male rats; assay: Rotation experiments (rotometer), LDA administered intravenously; type: in vivo, rat; conditions: for CCW (counter clockwise rotations) / CW (clockwise rotations) / CW − CCW: carbidopa 4 mg/kg ip 15 minutes before, one line per rat, preliminary
# Procedure: as §1, §2, §3, §4
# Intravenous (iv) Experiments: Rats were intravenously injected with 24 mg/kg or 40 mg/kg LDA. All rats received 4 mg/kg carbidopa, intraperitoneally, 15 minutes before LDA administration.
# [5] = LDA 15 mg/kg ip, carbidopa 4 mg/kg ip 15 minutes before, monitored during 3 hours, one line per rat, preliminary
SMILES,activity of DOPA decarboxylase with the substance as substrate (DOPA decarboxylase; Substrate 50 micromoles),activity of DOPA decarboxylase with the substance as substrate (DOPA decarboxylase; Substrate 100 micromoles),activity of DOPA decarboxylase with the substance as substrate (DOPA decarboxylase; Substrate 150 micromoles),activity of DOPA decarboxylase with the substance as substrate (DOPA decarboxylase; Substrate 250 micromoles),activity of DOPA decarboxylase with the substance as substrate (DOPA decarboxylase; Substrate 500 micromoles),activity of DOPA decarboxylase with the substance as substrate (DOPA decarboxylase; Substrate 1000 micromoles),"substrate of DOPA decarboxylase, in words (DOPA decarboxylase)",water solubility [2],further results
"CCOC(=O)[C@@H](N)Cc1ccc(O)c(O)c1 [Compound 1, L-DOPA ethyl ester]",227,278,328,371,357,350,poor substrate,highly water-soluble,hydrolysis to L-DOPA before reaching the brain ([1]; in vivo): fast hydrolysis
"N[C@@H](Cc1ccc(O)c(O)c1)C(=O)O [L-DOPA, 3,4-dihydroxy-L-phenylalanine]",3241,3839,3828,4332,4612,3933,–,poor water solubility,share of administered levodopa that enters the brain unaltered ([1]; peripheral administration): 1-3%
NC(=O)[C@@H](N)Cc1ccc(O)c(O)c1 [LDA + Carbidopa],–,–,–,–,–,–,–,–,"CCW (counter clockwise rotations) [3, 5]: 22 and 50 and 74 and 109; CW (clockwise rotations) [3, 5]: 56 and 361 and 123 and 111; CW − CCW [3, 5]: 34 and 311 and 49 and 2; CCW (counter clockwise rotations) ([4]; LDA 24 mg/kg iv): 128 and 134; CW (clockwise rotations) ([4]; LDA 24 mg/kg iv): 686 and 629; CW − CCW ([4]; LDA 24 mg/kg iv): 558 and 495; CCW (counter clockwise rotations) ([4]; LDA 40 mg/kg iv): 724 and 14 and 59; CW (clockwise rotations) ([4]; LDA 40 mg/kg iv): 1563 and 970 and 573; CW − CCW ([4]; LDA 40 mg/kg iv): 839 and 956 and 514"
"NC(=O)C(N)Cc1ccc(O)c(O)c1 (stereo not drawn) [LDA, α-amino-3,4-dihydroxy-benzenepropanamide]",–,–,–,–,–,–,not a substrate,–,"improving the behavior of lesioned animals ([3]; LDA administered intraperitoneally): highly active; activity of the enzyme (formation of dopamine) with the substance as substrate, in words (DOPA decarboxylase; assay performed twice): No activity of the enzyme was detected; effect of co-administration of carbidopa on the activity of LDA ([4]; increasing relative amount of carbidopa with respect to LDA): positively affect the activity of LDA; duration of the rotation effect ([4]; intravenous LDA together with carbidopa, data not shown): more than 2 hours"

# — patent publication US8048926B2, “L-DOPA amide derivatives and uses thereof” (Yissum Research Development Company of the Hebrew …, priority 2003, dated 2011)
